Data on 23 compounds can be found in patent US20240059700A1, “NOVEL DIACYLGLYCERIDE O-ACYLTRANSFERASE 2 INHIBITORS” (Merck Sharp & Dohme LLC, priority 2020, published 2024).

The target of the test is human DGAT2 (hDGAT2) (Homo sapiens (Human), UniProt Q96PD7). Kind of test: DGAT2 Enzymatic Activity Assay. It is filed as biochemical. Particulars: membrane prep of Sf-9 insect cells expressing hDGAT2; 13C18-triolein product by LC/MS/MS. As for the experimental part: Sf-9 insect cells were maintained in Grace's insect cell culture medium with 10% heated-inactivated fetal bovine serum, 1% Pluronic F-68 and 0.14 μg/ml Kanamycine sulfate at 27° C. in a shaker incubator. After infection with untagged baculovirus expressing human DGAT2 (hDGAT2) at multiplicity of infection (MOI) 3 for 48 hours, cells were harvested. Cell pellets were suspended in buffer containing 10 mM Tris-HCl pH 7.5, 1 mM EDTA, 250 mM sucrose and Complete Protease Inhibitor Cocktail (Sigma Aldrich), and sonicated on ice. Cell debris were removed by centrifugation at 2000×g for 15 minutes. Membrane fractions were isolated by ultracentrifugation (100,000×g), resuspended in the same buffer, and frozen (−80° C.) for later use. The protein concentration was determined with the Pierce™ BCA Protein Assay Kit (Thermo Fisher Scientific). Expression of protein levels was analyzed by immunoblotting with rabbit anti-DGAT2 antibody (Abcam, ab102831) and donkey anti-rabbit IgG H&L Alexa Fluor® 647 (Abcam, ab150075) followed by detection using Typhoon FLA9000 (GE Healthcare).
LC/MS/MS analyses were performed using Thermal Fisher's LX4-TSQ Vantage system. This system consists of an Agilent binary high-performance liquid chromatography (HPLC) pumps and a TSQ Vantage triple quadrupole MS/MS instrument. For each sample, 2 μL samples from the top organic layer of in-plate liquid-liquid extraction were injected onto a Thermo Betabasic C4 column (2.1 mm×20 mm, 5 μm particle size). The samples were then eluted using the following conditions; mobile phase: Isopropanol: acetonitrile/10 mM ammonium formate=50/35/15 (v/v/v), flow rate: 0.8 mL/min, temperature: 25° C. Data was acquired in positive mode using a heated electrospray ionization (HESI) interface. The operational parameters for the TSQ Vantage MS/MS instrument were a spray voltage of 3000 V, capillary temperature of 280° C., vaporizer temperature 400° C., sheath gas 45 arbitrary unit, Aux gas 10 arbitrary units, S-lens 165 and collision gas 1.0 mTorr. […] (SRM) chromatograms of ^13C18-triolein (Q1: 920.8>Q3:621.3) and internal standard ^13C21-triolein (Q1: 923.8>Q3:617.3) were collected for 33 sec. The peak area was integrated by Xcalibur Quan software. The ratio between the ^13C18 triolein generated in the reaction and spiked in internal standard ^13C21-triolein was used to generate percentage inhibition and IC50 values. Compound percentage inhibition was calculated by the following formula: Inhibition %=1−[(compound response−low control)/(high control−low control)]×100%. Potent compounds were titrated and IC50 were calculated by 4 parameter sigmoidal curve fitting formula.
DGAT2 activity was determined by measuring the amount of enzymatic product ^13C18-triolein (^13C-1,2,3-Tri(cis-9-octadecenoyl)glycerol) using the membrane prep mentioned above. The assay was carried out in ABgene 384-well assay plates in a final volume of 25 μL at rt. The assay mixture contained the following: assay buffer (100 mM Tris·Cl, pH 7.0, 20 mM MgCl2, 5% ethanol), 25 μM of diolein, 5 μM of ^13C oleoyl-CoA and 8 ng/μL of DGAT2 membrane.

human DGAT2 (hDGAT2), sequence (Q96PD7 whole entry): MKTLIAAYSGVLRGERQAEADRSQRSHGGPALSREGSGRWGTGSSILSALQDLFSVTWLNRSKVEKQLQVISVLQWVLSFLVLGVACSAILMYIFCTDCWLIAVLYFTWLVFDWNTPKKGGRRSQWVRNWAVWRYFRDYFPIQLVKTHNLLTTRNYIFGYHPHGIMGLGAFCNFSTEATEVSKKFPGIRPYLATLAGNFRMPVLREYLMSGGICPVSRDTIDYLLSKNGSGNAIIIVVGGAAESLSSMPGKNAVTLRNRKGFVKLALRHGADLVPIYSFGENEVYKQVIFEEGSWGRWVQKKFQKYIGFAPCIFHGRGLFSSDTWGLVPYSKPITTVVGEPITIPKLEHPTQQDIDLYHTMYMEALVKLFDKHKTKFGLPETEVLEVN

`CC(C)n1nc(-c2cncc(OC(F)F)c2)c2ncc(C(=O)NC3(C)CS(=O)(=O)C3)cc21` [Example 95, 3-[5-(difluoromethoxy)-3-pyridyl]-1-isopropyl-N-(3-methyl-1,1-dioxo-thietan-3-yl)pyrazolo[4,3-b]pyridine-6-carboxamide] registered an IC50 of 26 nM.
For `CC(C)n1nc(-c2cccc(OC3CC3)c2)c2ncc(C(=O)NC3(C)CS(=O)(=O)C3)cc21` [Example 97, 3-[3-(cyclopropoxy)phenyl]-1-isopropyl-N-(3-methyl-1,1-dioxo-thietan-3-yl)pyrazolo[4,3-b]pyridine-6-carboxamide], the IC50 is 0.9 nM.
`CC(C)n1nc(-c2cc(OC(F)F)ccc2Cl)c2ncc(C(=O)NC3(C)CS(=O)(=O)C3)cc21` [Example 120, 3-(2-chloro-5-(difluoromethoxy)phenyl)-1-isopropyl-N-(3-methyl-1,1-dioxidothietan-3-yl)-1H-pyrazolo[4,3-b]pyridine-6-carboxamide] had an IC50 of 7.2 nM.
The result for `CC(C)n1nc(-c2cccc(S(C)(=O)=O)c2)c2ncc(C(=O)NC3(C)CS(=O)(=O)C3)cc21` [Example 102, 1-isopropyl-N-(3-methyl-1,1-dioxo-thietan-3-yl)-3-(3-methylsulfonylphenyl)pyrazolo[4,3-b]pyridine-6-carboxamide] reads 7100 nM.
The result for `CC(CS(C)(=O)=O)NC(=O)c1cnc2c(-c3cccc(OC(F)F)c3)cn(-c3ncc(F)cn3)c2c1` (centres unmarked) [Example 17, 3-(3-(difluoromethoxy)phenyl)-1-(5-fluoropyrimidin-2-yl)-N-(1-(methylsulfonyl)propan-2-yl)-1H-pyrrolo[3,2-b]pyridine-6-carboxamide] reads 72 nM; that for `CC(C)n1nc(-c2cccc(C3CC3)c2)c2ncc(C(=O)NC3(C)CS(=O)(=O)C3)cc21` [Example 92, 3-(3-cyclopropylphenyl)-1-isopropyl-N-(3-methyl-1,1-dioxidothietan-3-yl)-1H-pyrazolo[4,3-b]pyridine-6-carboxamide], 31 nM; that for `N[C@@H]1CCC[C@H]1NC(=O)c1cnc2c(-c3cccc(OC(F)F)c3)cn(-c3ncc(F)cn3)c2c1` [Example 21, N-((1R,2R)-2-aminocyclopentyl)-3-(3-(difluoromethoxy)phenyl)-1-(5-fluoropyrimidin-2-yl)-1H-pyrrolo[3,2-b]pyridine-6-carboxamide], 6530 nM.
Then `CC(C)n1nc(-c2cc(OC(F)F)ccc2F)c2cnc(C(=O)NC3(C)CS(=O)(=O)C3)cc21` [Example 36, 3-(5-(difluoromethoxy)-2-fluorophenyl)-1-isopropyl-N-(3-methyl-1,1-dioxidothietan-3-yl)-1H-pyrazolo[4,3-c]pyridine-6-carboxamide], with 1.7 nM; and `CC1(NC(=O)c2cnc3c(-c4cccc(OC(F)F)c4)nn(C4CCOCC4C(F)(F)F)c3c2)CS(=O)(=O)C1` (centres unmarked) [Example 71, 3-(3-(difluoromethoxy)phenyl)-N-(3-methyl-1,1-dioxidothietan-3-yl)-1-(3-(trifluoromethyl)tetrahydro-2H-pyran-4-yl)-1H-pyrazolo[4,3-b]pyridine-6-carboxamide], with 95 nM; and `Cn1nccc1-c1cn(-c2ccc(F)cc2)c2cc(C(=O)N[C@@]3(C)CCS(=O)(=O)C3)cnc12` [Example 13, (S)-1-(4-fluorophenyl)-N-(3-methyl-1,1-dioxidotetrahydrothiophen-3-yl)-3-(1-methyl-1H-pyrazol-5-yl)-1H-pyrrolo[3,2-b]pyridine-6-carboxamide], with 89 nM.
`CC(C)n1nc(-c2cccc(C3(C#N)CC3)c2)c2ncc(C(=O)NC3(C)CS(=O)(=O)C3)cc21` [Example 110, 3-(3-(1-cyanocyclopropyl)phenyl)-1-isopropyl-N-(3-methyl-1,1-dioxidothietan-3-yl)-1H-pyrazolo[4,3-b]pyridine-6-carboxamide] displayed an IC50 of 1930 nM.
`CC(C)n1nc(-c2cccc(OC(F)F)c2)c2ncc(C(=O)NC3(CO)CCC3)cc21` [Example 49, 3-(3-(difluoromethoxy)phenyl)-N-(1-(hydroxymethyl)cyclobutyl)-1-isopropyl-1H-pyrazolo[4,3-b]pyridine-6-carboxamide] yielded an IC50 of 6.1 nM.
For the compound `C[C@]1(NC(=O)c2cnc3c(-c4cccc(OC(F)F)c4)cn(C4CCOCC4)c3c2)CCS(=O)(=O)C1` [Example 81, (S)-3-(3-(difluoromethoxy)phenyl)-N-(3-methyl-1,1-dioxidotetrahydrothiophen-3-yl)-1-(tetrahydro-2H-pyran-4-yl)-1H-pyrrolo[3,2-b]pyridine-6-carboxamide], the IC50 was 208 nM.
`N[C@@H]1CCC[C@@H]1NC(=O)c1cnc2c(-c3cccc(OC(F)F)c3)cn(-c3ncc(F)cn3)c2c1` [Example 23, N-((1S,2R)-2-aminocyclopentyl)-3-(3-(difluoromethoxy)phenyl)-1-(5-fluoropyrimidin-2-yl)-1H-pyrrolo[3,2-b]pyridine-6-carboxamide] yielded an IC50 of 173 nM.
The result for `CC(C)n1nc(-c2cccc(F)c2)c2ncc(C(=O)NC3(C)CS(=O)(=O)C3)cc21` [Example 104, 3-(3-fluorophenyl)-1-isopropyl-N-(3-methyl-1,1-dioxo-thietan-3-yl)pyrazolo[4,3-b]pyridine-6-carboxamide] reads 119 nM.
The result for `CC(C)(O)Cn1nc(-c2cccc(OC(F)F)c2)c2ncc(C(=O)NC3(C)CS(=O)(=O)C3)cc21` [Example 111, 3-(3-(difluoromethoxy)phenyl)-1-(2-hydroxy-2-methylpropyl)-N-(3-methyl-1,1-dioxidothietan-3-yl)-1H-pyrazolo[4,3-b]pyridine-6-carboxamide] reads 22 nM; that for `CC(C)n1nc(-c2cc(OCC(F)F)ncc2F)c2ncc(C(=O)NC3(C)CS(=O)(=O)C3)cc21` [Example 121, 3-(2-(2,2-difluoroethoxy)-5-fluoropyridin-4-yl)-1-isopropyl-N-(3-methyl-1,1-dioxidothietan-3-yl)-1H-pyrazolo[4,3-b]pyridine-6-carboxamide], 8.3 nM; that for `CC1(C)CC(n2nc(-c3cccc(OC(F)F)c3)c3ncc(C(=O)NC4(C)CS(=O)(=O)C4)cc32)C1` [Example 89, 3-(3-(difluoromethoxy)phenyl)-1-(3,3-dimethylcyclobutyl)-N-(3-methyl-1,1-dioxidothietan-3-yl)-1H-pyrazolo[4,3-b]pyridine-6-carboxamide], 2.9 nM.
The result for `CC(C)n1nc(-c2cccc(OC(F)F)c2)c2ncc(C(=O)N[C@H]3CCCC[C@@H]3O)cc21` [Example 40, 3-[3-(difluoromethoxy)phenyl]-N-[(1S,2S)-2-hydroxycyclohexyl]-1-isopropyl-pyrazolo[4,3-b]pyridine-6-carboxamide] reads 17 nM.
`CC(C)n1nc(-c2cccc(OC(F)F)c2)c2ncc(C(=O)N[C@@]3(C)CCS(=O)(=O)C3)cc21` [Example 31, (S)-3-(3-(difluoromethoxy)phenyl)-1-isopropyl-N-(3-methyl-1,1-dioxidotetrahydrothiophen-3-yl)-1H-pyrazolo[4,3-b]pyridine-6-carboxamide] had an IC50 of 7.2 nM.
Then `CC(C)n1nc(-c2cccc(C(C)(F)F)c2)c2ncc(C(=O)NC3(C)CS(=O)(=O)C3)cc21` [Example 93, 3-[3-(1,1-difluoroethyl)phenyl]-1-isopropyl-N-(3-methyl-1,1-dioxo-thietan-3-yl)pyrazolo[4,3-b]pyridine-6-carboxamide], with 210 nM.
Then `CC(C)n1nc(-c2cccc(OC(F)F)c2)c2ncc(C(=O)NC3(CO)CCOCC3)cc21` [Example 74, 3-(3-(difluoromethoxy)phenyl)-N-(4-(hydroxymethyl)tetrahydro-2H-pyran-4-yl)-1-isopropyl-1H-pyrazolo[4,3-b]pyridine-6-carboxamide], with 64 nM; and `C[C@]1(NC(=O)c2cnc3c(-c4cccc(OC(F)F)c4)nn(-c4ncc(F)cn4)c3c2)CCS(=O)(=O)C1` [Example 3, (S)-3-(3-(difluoromethoxy)phenyl)-1-(5-fluoropyrimidin-2-yl)-N-(3-methyl-1,1-dioxidotetrahydrothiophen-3-yl)-1H-pyrazolo[4,3-b]pyridine-6-carboxamide], with 57 nM.
